Two molecules from PMC8843100, “Development of newly synthesised quinazolinone-based CDK2 inhibitors with potent efficacy against melanoma” (Journal of Enzyme Inhibition and Medicinal Chemistry, 2022) can be followed below.

Holding throughout (test): NCI-60 single dose screen, sulforhodamine B
Assay type in all cases: cell-based, human

The subject of test [1] is A498. Conditions: Renal cancer A498; single dose 10^−5 M. The essentials: (§1)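 10 µM single-point, 48 h-equivalent 2-day exposure after 1-day attachment; SRB read on fixed cells; % relative to no-drug and T0.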
For test [2], the system named is A549/ATCC. As to conditions: Non-small cell lung cancer A549/ATCC; single dose 10^−5 M. The essentials: as §1
The subject of test [3] is BT-549. Conditions: Breast cancer BT-549; single dose 10^−5 M. The essentials:
as §1

Test [4] has as its system CAKI-1. As to conditions: Renal cancer CAKI-1; single dose 10^−5 M. The essentials: as §1
In test [5] the test system is HCT-116. As to conditions: Colon cancer HCT-116; single dose 10^−5 M. The essentials: as §1
Test [6] deals with HCT-15. As to conditions: Colon cancer HCT-15; single dose 10^−5 M. The essentials: as §1
In test [7] the test system is HOP-92. As to conditions: Non-small cell lung cancer HOP-92; single dose 10^−5 M. The essentials: as §1
Test [8] has as its system MALME-3M. As to conditions: Melanoma MALME-3M; single dose 10^−5 M. The essentials: as §1
Test [9] deals with MDA-MB-231/ATCC. As to conditions: Breast cancer MDA-MB-231/ATCC; single dose 10^−5 M. The essentials:
as §1

Test [10] has as its system NCI-H522. As to conditions: Non-small cell lung cancer NCI-H522; single dose 10^−5 M. The essentials:
as §1

Test [11] concerns OVCAR-4. As to conditions: Ovarian cancer OVCAR-4; single dose 10^−5 M. The essentials: as §1
For test [12], the system named is OVCAR-5. As to conditions: Ovarian cancer OVCAR-5; single dose 10^−5 M. The essentials:
as §1

The subject of test [13] is PC-3. Conditions: Prostate cancer PC-3; single dose 10^−5 M. The essentials: as §1
Test [14] deals with SF-268. As to conditions: CNS cancer SF-268; single dose 10^−5 M. The essentials: as §1
Test [15] concerns SF-295. Conditions: CNS cancer SF-295; single dose 10^−5 M. The essentials:
as §1

Test [16] deals with SF-539. Conditions: CNS cancer SF-539; single dose 10^−5 M. The essentials:
as §1

Test [17] concerns SK-MEL-28. Conditions: Melanoma SK-MEL-28; single dose 10^−5 M. The essentials: as §1
For test [18], the system named is SK-MEL-5. As to conditions: Melanoma SK-MEL-5; single dose 10^−5 M. The essentials: as §1
In test [19] the test system is SNB-75. Conditions: CNS cancer SNB-75; single dose 10^−5 M. The essentials:
as §1

Test [20] concerns SR. Conditions: Leukaemia SR; single dose 10^−5 M. The essentials:
as §1

For test [21], the system named is T-47D. Conditions: Breast cancer T-47D; single dose 10^−5 M. The essentials:
as §1

In test [22] the test system is TK-10. As to conditions: Renal cancer TK-10; single dose 10^−5 M. The essentials:
as §1

Test [23] has as its system UACC-257. Conditions: Melanoma UACC-257; single dose 10^−5 M. The essentials:
as §1

Test [24] concerns UACC-62. Conditions: Melanoma UACC-62; single dose 10^−5 M. The essentials:
as §1

With `O=c1c2ccccc2nc(COc2ccccc2)n1N=CC=Cc1ccccc1` [Compound 6b, 2-(phenoxymethyl)-3-((3-phenylallylidene)amino)quinazolin-4(3H)-one], the “GI% at 10^−5 M” value in [1] is “– (– means GI < 10%)”; in test [2], “– (– means GI < 10%)”; in test [3] it was “– (– means GI < 10%)”; in [4], “– (– means GI < 10%)”; in test [5] it was “– (– means GI < 10%)”; in test [6] it was 23.15%. Also, the “GI% at 10^−5 M” value in test [7] was “– (– means GI < 10%)”; in test [8], “– (– means GI < 10%)”; in test [9], “– (– means GI < 10%)”; in [10] it was 18.6%; in [11] it was 10.01%; in test [12], “– (– means GI < 10%)”. In addition, the “GI% at 10^−5 M” value is recorded as 10.39% in test [13]; “– (– means GI < 10%)” in test [14]; “– (– means GI < 10%)” in test [15]; “– (– means GI < 10%)” in test [16]; “– (– means GI < 10%)” in [17]; “– (– means GI < 10%)” in test [18]. The “GI% at 10^−5 M” value in [19] was 16.57%; in [20], 14.34%; in test [21], “– (– means GI < 10%)”; in test [22], “– (– means GI < 10%)”; in test [23], “– (– means GI < 10%)”; in test [24], “– (– means GI < 10%)”.

Take `O=C(CN1CCN(c2ccccc2)CC1)Nn1c(COc2ccccc2)nc2ccccc2c1=O` [Compound 8b, N-(4-oxo-2-(phenoxymethyl)quinazolin-3(4H)-yl)-2–(4-phenylpiperazin-1-yl)acetamid]: the “GI% at 10^−5 M” value in test [1], in test [2], in [3], in test [4], in test [5] and in test [6] was “– (– means GI < 10%)” in each case. The “GI% at 10^−5 M” value in test [7] is given as “– (– means GI < 10%)”; in test [8], “– (– means GI < 10%)”; in test [9], 10.38%; in test [10], 11.45%; in test [11], “– (– means GI < 10%)”; in test [12], “– (– means GI < 10%)”. Also, the “GI% at 10^−5 M” value in [13], in test [14], in test [15], in [16], in test [17] and in test [18] was “– (– means GI < 10%)” each time. In addition, the “GI% at 10^−5 M” value in test [19], in test [20], in test [21], in [22], in [23] and in test [24] was “– (– means GI < 10%)” throughout.
